Test results from patent publication US12692230B2, “(1 h-indol-5-yl)acrylamide derivatives as inhibitors of TEAD proteins and the hippo-YAP1/TAZ signaling cascade for the treatment of cancer” (Sanofi, priority 2020, dated 2026).

tested on: TEAD responsive promoter element (8XGTIIC-Luciferase; YAP1-TEAD and TAZ-TEAD activity); assay: TEAD-Luciferase reporter assay; type: cell-based; settings: Homo sapiens; luciferase activity in tumor cell lines with stable integration of the 8XGTIIC-Luciferase construct; 10 doses between 1 and 10000 nM, 48 hrs
Description: TEAD-Luciferase Reporter Assay
Luciferase-based gene reporter assays were used, employing the TEAD responsive promoter element that are stably integrated to different human tumor cell lines in order to monitor YAP1-TEAD and TAZ-TEAD activity and to study YAP1/TAZ-TEAD activity modulation by small molecule compounds. Luciferase-based gene reporter assays employing the GAPDH promoter element and stably integrated to different human tumor cell lines are used as counter screen control cell lines.
Tumor cell lines with stable integration of the 8XGTIIC-Luciferase construct (Dupont et al., Nature 2011) or the GAPDH-Luciferase control plasmid, are seeded in culture medium in 96-well plates at a density of 8000 cells/well. Following an overnight incubation in a 37° C., 5% CO2 growth chamber, cells are treated with compounds described above at 10 doses ranging between 1 and 10000 nM for 48 hrs. After compound incubation, cells are lysed with Bright-Glo Luciferase Assay System (Promega E2620) and luciferase activity is measured using a luminescent plate reader.
The inhibitory activity of the compounds with respect to luciferase activity is given by the concentration which inhibits 50% of activity of non-treated cells. IC50s are determined with a nonlinear regression model on XLfit software analysis (IDBS, UK).

First: C=CC(=O)Nc1ccc2c(ccn2-c2ccc(C(F)(F)F)cn2)c1 [Example 46, N-(1-(5-(trifluoromethyl)pyridin-2-yl)-1H-indol-5-yl)acrylamide]
Second: C=CC(=O)Nc1ccc2c(ccn2-c2ccc(C(F)(F)F)cc2C)c1 [Example 65, N-(1-(2-methyl-4-(trifluoromethyl)phenyl)-1H-indol-5-yl)acrylamide]
The IC50 of the first is higher: > 10 µM for the first, 0.059 µM for the second. The second is the more potent here.

C=CC(=O)Nc1ccc2c(ccn2-c2cccnc2)c1 [Example 47, N-(1-(pyridin-3-yl)-1H-indol-5-yl)acrylamide] and C=CC(=O)Nc1ccc2c(ccn2-c2ccc(F)cc2)c1 [Example 48, N-(1-(4-fluorophenyl)-1H-indol-5-yl)acrylamide] cannot be ordered by IC50: > 10 µM for the first, > 10 µM for the second.

First: C=CC(=O)Nc1ccc2c(ccn2-c2ccc(F)c(F)c2)c1 [Example 49, N-(1-(3,4-difluorophenyl)-1H-indol-5-yl)acrylamide]
Second: C=CC(=O)Nc1ccc2c(ccn2Cc2ccc(F)c(F)c2)c1 [Example 53, N-(1-(3,4-difluorobenzyl)-1H-indol-5-yl)acrylamide]
The IC50 of the first is higher: > 10 µM for the first, 0.033 µM for the second. The second is the more potent here.

First: C=CC(=O)Nc1ccc2c(ccn2-c2cccc(S(C)(=O)=O)c2)c1 [Example 50, N-(1-(3-(methylsulfonyl)phenyl)-1H-indol-5-yl)acrylamide]
Second: C=CC(=O)Nc1ccc2c(ccn2Cc2cccc(S(C)(=O)=O)c2)c1 [Example 59, N-(1-(3-(methylsulfonyl)benzyl)-1H-indol-5-yl)acrylamide]
The IC50 of the first is 1.6-fold higher: 4.68 µM for the first, 2.87 µM for the second.

Going from C=CC(=O)Nc1ccc2c(ccn2-c2ccc(C#N)cc2)c1 [Example 51, N-(1-(4-cyanophenyl)-1H-indol-5-yl)acrylamide] to C=CC(=O)Nc1ccc2c(ccn2-c2ccc(S(F)(F)(F)(F)F)cc2)c1 [Example 63, N-(1-(4-(pentafluoro-λ6-sulfanyl)phenyl)-1H-indol-5-yl)acrylamide], the IC50 falls from 0.313 µM to 0.029 µM (11-fold). The second is the more potent here.

Compared with C=CC(=O)Nc1ccc2c(ccn2Cc2cc(F)cc(F)c2)c1 [Example 52, N-(1-(3,5-difluorobenzyl)-1H-indol-5-yl)acrylamide], C=CC(=O)Nc1ccc2c(ccn2-c2cc(F)cc(F)c2)c1 [Example 66, N-(1-(3,5-difluorophenyl)-1H-indol-5-yl)acrylamide] is 45-fold higher in IC50: 0.041 µM for the first, 1.85 µM for the second. The first is the more potent here.

Going from C=CC(=O)Nc1ccc2c(ccn2Cc2cccc(C#N)c2)c1 [Example 54, N-(1-(3-cyanobenzyl)-1H-indol-5-yl)acrylamide] to C=CC(=O)Nc1ccc2c(ccn2Cc2cscn2)c1 [Example 56, N-(1-(thiazol-4-ylmethyl)-1H-indol-5-yl)acrylamide], the IC50 rises from 0.388 µM to ≥ 10 µM. The first is the more potent here.

C=CC(=O)Nc1ccc2c(ccn2Cc2ccc(C(F)(F)F)o2)c1 [Example 55, N-(1-((5-(trifluoromethyl)furan-2-yl)methyl)-1H-indol-5-yl)acrylamide] and C=CC(=O)Nc1ccc2c(ccn2Cc2csc(C(F)(F)F)n2)c1 [Example 57, N-(1-((2-(trifluoromethyl)thiazol-4-yl)methyl)-1H-indol-5-yl)acrylamide] are within 1.5-fold of each other in IC50: 0.185 µM for the first, 0.191 µM for the second.

Compared with C=CC(=O)Nc1cccc2ccn(Cc3cccc(C(F)(F)F)c3)c12 [Example 58, N-(1-(3-(trifluoromethyl)benzyl)-1H-indol-7-yl)acrylamide], C=CC(=O)Nc1ccc2ccn(-c3cccc(C(F)(F)F)c3)c2c1 [Example 62, N-(1-(3-(trifluoromethyl)phenyl)-1H-indol-6-yl)acrylamide] is 31-fold lower in IC50: 2.01 µM for the first, 0.064 µM for the second.

First: C=CC(=O)Nc1ccc2c(c1)c(COC)cn2Cc1cccc(C(F)(F)F)c1 [Example 60, N-(3-(methoxymethyl)-1-(3-(trifluoromethyl)benzyl)-1H-indol-5-yl)acrylamide]
Second: C=CC(=O)Nc1ccc2c(c1)c(C(=O)OC)cn2Cc1cccc(C(F)(F)F)c1 [Example 61, methyl 5-acrylamido-1-(3-(trifluoromethyl)benzyl)-1H-indole-3-carboxylate]
The IC50 of the first is 2.1-fold higher: 0.088 µM for the first, 0.041 µM for the second.

Work on C=CC(=O)Nc1ccc2ccn(-c3ccc(C(F)(F)F)cc3)c2c1 [Example 64, N-(1-(4-(trifluoromethyl)phenyl)-1H-indol-6-yl)acrylamide] yielded an IC50 of 0.108 µM.
